Laboratory results taken from ChEMBL document CHEMBL5260832, “Hepatoprotective natural triterpenoids” (Eur J Med Chem, 2018).

Legend:
[1] = system: L02; assay: Protection against D-GalN-induced toxicity in L02 cells […] assessed as reduction in cell growth relative to control; format: functional, Homo sapiens; set-up: scale not given: the % may be the effect or the level left
[2] = system: L02; assay: Protection against D-GalN-induced toxicity in L02 cells […] assessed as reduction in cell growth at 6.25 microg/ml relative to control; format: functional, Homo sapiens; set-up: scale not given: the % may be the effect or the level left; conditions: dose 6.25 µg/ml
[3] = system: Hepatocyte; assay: Hepatoprotective activity against CCL4-induced rat hepatocyte toxicity assessed as decrease in GPT level at 3.33 mg/mL preincubated for 30 mins followed by CCL4 addition and measured after 180 mins by colorimetric method; format: functional; conditions: time 210 min, 3.5 h
[4] = system: Hepatocyte; assay: Hepatoprotective activity against CCL4-induced rat hepatocyte toxicity assessed as decrease in GOT level at 3.33 mg/mL preincubated for 30 mins followed by CCL4 addition and measured after 180 mins by colorimetric method; format: functional; conditions: time 210 min, 3.5 h
[5] = system: Hepatocyte; assay: Hepatoprotective activity against CCL4-induced rat hepatocyte toxicity assessed as decrease in ALP level at 3.33 mg/mL preincubated for 30 mins followed by CCL4 addition and measured after 180 mins by colorimetric method; format: functional; conditions: time 210 min, 3.5 h
[6] = system: Hepatocyte; assay: Hepatoprotective activity against D-GaIN/TNFalpha -induced cell death in mouse hepatocyte assessed as inhibition at 50 uM relative to control; format: functional; set-up: scale not given: the % may be the effect or the level left
[7] = system: L02; assay: Protection against D-GalN-induced cell damage in human L02 cells […] assessed as reduction in cell viability […]; format: functional, cell-based
[8] = species on record: Mus musculus; assay: Hepatoprotective activity against D-GaIN-induced liver injury mouse model assessed as cell death with increasing cell survival rates at 10 uM relative to control; format: functional
[9] = system: Mus musculus; assay: Hepatoprotective activity against CCl4-induced liver injury mouse model assessed as increase in SOD level at 20 ug/mL, ip relative to control (reference value: 5.89 IU/L); format: functional; conditions: dose 20 µg/ml
[10] = system: Mus musculus; assay: Hepatoprotective activity against CCl4-induced liver injury mouse model assessed as reduction in ALT at 20 ug/mL, ip relative to control (reference value: 13.23 IU/L); format: functional; conditions: dose 20 µg/ml
[11] = system: Mus musculus; assay: Hepatoprotective activity against CCl4-induced liver injury mouse model assessed as reduction in MDA level at 20 ug/mL, ip relative to control (reference value: 9.27 IU/L); format: functional; conditions: dose 20 µg/ml
[12] = system: Mus musculus; assay: Hepatoprotective activity against CCl4-induced liver injury mouse model assessed as reduction in AST at 20 ug/mL, ip relative to control (reference value: 9.27 IU/L); format: functional; conditions: dose 20 µg/ml
[13] = species on record: Mus musculus; assay: Hepatoprotective activity in CCl4-induced mouse assessed as change in SGPT level (reference value: 6.9 mmol/L); format: functional
[14] = system: Hepatocyte; assay: Hepatoprotective activity against CCl4/GaIN-induced cytotoxicity in rat hepatocytes assessed as decrease in GPT level at 1.0 ug/mL relative to control; format: functional; set-up: scale not given: the % may be the effect or the level left; conditions: dose 1 µg/ml
[15] = Hepatotoxicity in CCl4-induced ICR mouse model assessed as change in SOD level, po measured after 7 days; format: toxicity, organism-based; conditions: in vivo, 168 h, time 7 day
[16] = Hepatotoxicity in CCl4-induced ICR mouse model assessed as change in GSH-PX level, po measured after 7 days; format: toxicity, organism-based; conditions: in vivo, 168 h, time 7 day
[17] = Hepatotoxicity in DMF-induced ICR mouse model assessed as change in SOD level, po measured after 7 days; format: toxicity, organism-based; conditions: in vivo, 168 h, time 7 day
[18] = Hepatotoxicity in CCl4-induced ICR mouse model assessed as change in CAT level, po measured after 7 days; format: toxicity, organism-based; conditions: in vivo, 168 h, time 7 day
[19] = Hepatotoxicity in DMF-induced ICR mouse model assessed as change in GSH-PX level, po measured after 7 days; format: toxicity, organism-based; conditions: in vivo, 168 h, time 7 day
[20] = Hepatotoxicity in DMF-induced ICR mouse model assessed as change in CAT level, po measured after 7 days; format: toxicity, organism-based; conditions: in vivo, 168 h, time 7 day

In the case of `CC(C)[C@]1(CO[C@@H]2O[C@H](CO)[C@@H](O)[C@H](O)[C@H]2O)CC[C@@H]([C@H]2[C@H](O)C[C@]3(C)[C@@H]2CC[C@@H]2[C@@]4(C)CC[C@H](O[C@@H]5O[C@H](CO)[C@@H](O)[C@H](O)[C@H]5O[C@@H]5O[C@H](CO)[C@@H](O)[C@H](O)[C@H]5O)C(C)(C)[C@@H]4CC[C@]23C)O1`, the Activity [1] is reported as 28.2% and the Activity [2] is reported as 14.7%.
With `CC(=O)O[C@H]1CC[C@]2(C)[C@H]3CC=C4[C@@H]5CC(C)(C)CC[C@]5(C(=O)O)CC[C@@]4(C)[C@]3(C)CC[C@H]2C1(C)C` [ACETYL OLEANOLIC ACID] the Activity [3] was 17.5 IU/L, the Activity [4] was 27.8 IU/L and the Activity [5] was 16.1 IU/L.
In the case of `C=C(C)[C@@H]1CC[C@]2(C(=O)O[C@@H]3O[C@H](CO)[C@@H](O)[C@H](O)[C@H]3O)CC[C@]3(C)[C@H](CC[C@@H]4[C@@]5(C)C[C@@H](O)[C@H](O)[C@](C)(CO)[C@@H]5CC[C@]43C)[C@@H]12`, the Activity [6] is reported as 40.9%.
`CC(=O)O[C@H]1[C@@H]2O[C@@]3(C(C)(C)O)CC[C@](C)(O3)C2[C@@]2(CO)CC[C@@]34C[C@@]35CC[C@H](O[C@@H]3OC[C@@H](O)[C@H](O)[C@H]3O)C(C)(C)C5CC[C@H]4[C@]12C` (stereo partly specified) gave an EC50 [7] of 74.1 µM.
For `CC(=O)O[C@H](C/C=C(/C)C(=O)O)[C@@H](C)[C@H]1CCC2(C)[C@@H]3CC[C@H]4C(C)(C)C(=O)CC[C@@]45C[C@@]35CC[C@]12C` (stereo partly specified), the Activity [8] was 30.8%.
In the case of `C[C@@H]1CC[C@]2(C(=O)O)CC[C@]3(C)C(=CC[C@@H]4[C@@]5(C)[C@H](O)[C@@H](O)[C@@H](O)C(C)(C)[C@@H]5CC[C@]43C)[C@@H]2[C@]1(C)O`, the Activity [9] is reported as 21.9 U/ml, the Activity [10] is reported as 4.75 IU/L and the Activity [11] is reported as 3.84 nmol/mL. It also gave an Activity [12] of 4.24 IU/L.
Work on `CC1(C)CC[C@]2(C(=O)O)CC[C@]3(C)C(=CC[C@@H]4[C@@]5(C)CCC(OC(=O)/C=C/c6ccc(O)c(O)c6)C(C)(C)[C@@H]5CC[C@]43C)[C@@H]2C1` (stereo partly specified) yielded an Activity [13] of 3.53 mmol/L.
In the case of `CC1=CC[C@H]([C@@H](C)[C@H]2CC[C@@]3(C)[C@@H]4CC[C@@H](C(C)(C)O)[C@@]5(CCC(=O)O)C[C@@]45CC[C@@]23C)OC1=O`, the Activity [8] is reported as 35.7%.
For `CC1(C)CC[C@]2(C(=O)O[C@@H]3O[C@H](CO)[C@@H](O)[C@H](O)[C@H]3O)CC[C@]3(C)C(=CC[C@@H]4[C@@]5(C)CC[C@H](O[C@@H]6O[C@H](C(=O)O)[C@@H](O)[C@H](O)[C@H]6O[C@@H]6O[C@H](CO)[C@@H](O)[C@H](O)[C@H]6O)C(C)(C)[C@@H]5CC[C@]43C)[C@@H]2C1` [GINSENOSIDE R0], the Activity [14] was 42%.
`C[C@@H]1O[C@@H](O[C@H]2[C@H](OC(=O)[C@]34CCC(C)(C)C[C@H]3C3=CC[C@@H]5[C@@]6(C(=O)O)CC[C@H](O)[C@@](C)(C(=O)O)[C@@H]6CC[C@@]5(C)[C@]3(C)CC4)O[C@H](C)[C@H](O)[C@@H]2O)[C@H](O)[C@H](O)[C@H]1O[C@@H]1O[C@H](CO)[C@@H](O[C@@H]2OC[C@@H](O)[C@H](O)[C@H]2O[C@@H]2OC[C@H](O)[C@H](O)[C@H]2O)[C@H](O)[C@H]1O` gave an Activity [15] of 221.03 U/mg, an Activity [16] of 69.12 U/mg and an Activity [17] of 198.16 U/mg. It also gave an Activity [18] of 87.1 U/mg, an Activity [19] of 59.91 U/mg and an Activity [20] of 84.68 U/mg.
